Experimental data from ChEMBL document CHEMBL4196131 (J Med Chem, 2018).
pEC50, pIC50, pKi: −log10 of the molar value.

How the values were obtained:
Estrogen receptor beta [1] = target: T1, Estrogen receptor beta (Homo sapiens, UniProt Q92731); assay: Antagonist activity at human ERbeta expressed in HEK293T cells after 24 hrs by ERE-based dual luciferase reporter gene assay relative to E2; assay type: cell-based; parameters: concentration or dose not given beside the values
[2] = Inhibition of NFkappaB in mouse RAW 264.7 cells assessed as reduction in LPS induced NO production after 24 hrs by Griess assay; assay type: cell-based; details: RAW264.7, 24 h
Estrogen receptor beta [3] = target: T1, Estrogen receptor beta; assay: Agonist activity at human ERbeta expressed in HEK293T cells after 24 hrs by ERE-based dual luciferase reporter gene assay relative to E2; assay type: cell-based
MCF7 = assay: cells; details: Homo sapiens, MCF7, 72 h
[4] = target: T2, Estrogen receptor (Homo sapiens) (UniProt P03372); assay: Agonist activity at human ERalpha expressed in HEK293T cells after 24 hrs by ERE-based dual luciferase reporter gene assay relative to E2; assay type: cell-based
T2 sequence (whole entry): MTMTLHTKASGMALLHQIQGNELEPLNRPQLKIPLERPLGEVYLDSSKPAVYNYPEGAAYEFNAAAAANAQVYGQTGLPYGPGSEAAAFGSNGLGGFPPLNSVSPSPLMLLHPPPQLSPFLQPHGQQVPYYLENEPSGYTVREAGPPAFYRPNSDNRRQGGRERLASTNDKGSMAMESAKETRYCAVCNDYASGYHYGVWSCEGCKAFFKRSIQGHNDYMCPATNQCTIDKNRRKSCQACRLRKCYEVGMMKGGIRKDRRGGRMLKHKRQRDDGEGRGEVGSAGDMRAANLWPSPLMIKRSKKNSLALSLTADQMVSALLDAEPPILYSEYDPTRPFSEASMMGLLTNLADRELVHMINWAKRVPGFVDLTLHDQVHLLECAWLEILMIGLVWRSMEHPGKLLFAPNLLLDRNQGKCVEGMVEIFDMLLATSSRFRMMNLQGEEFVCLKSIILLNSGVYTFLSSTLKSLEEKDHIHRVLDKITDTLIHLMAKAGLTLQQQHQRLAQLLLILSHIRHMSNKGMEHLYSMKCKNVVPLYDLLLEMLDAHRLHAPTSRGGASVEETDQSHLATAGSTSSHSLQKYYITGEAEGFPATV

Mus musculus = species on record: Mus musculus; assay: Inhibition of NFkappaB in mouse RAW 264.7 cells assessed as reduction in LPS induced NO production at 10 uM after 24 hrs by Griess assay relative to control; assay type: cell-based
Estrogen receptor [5] = target: T3, Estrogen receptor (Homo sapiens, UniProt P03372); assay: Agonist activity at human ERalpha expressed in HEK293T cells after 24 hrs by ERE-based dual luciferase reporter gene assay; assay type: cell-based
T3 sequence (P03372 whole entry): T2 sequence (whole entry)

[6] = target: T2, Estrogen receptor (Homo sapiens); assay: Antagonist activity at human ERalpha expressed in HEK293T cells after 24 hrs by ERE-based dual luciferase reporter gene assay relative to E2; assay type: cell-based
Estrogen receptor [7] = target: T3, Estrogen receptor; assay: Antagonist activity at human ERalpha expressed in HEK293T cells after 24 hrs by ERE-based dual luciferase reporter gene assay; assay type: cell-based
Estrogen receptor beta [8] = target: T1, Estrogen receptor beta; assay: Agonist activity at human ERbeta expressed in HEK293T cells after 24 hrs by ERE-based dual luciferase reporter gene assay; assay type: cell-based
Estrogen receptor beta [9] = target: T1, Estrogen receptor beta; assay: Antagonist activity at human ERbeta expressed in HEK293T cells after 24 hrs by ERE-based dual luciferase reporter gene assay; assay type: cell-based
Estrogen receptor beta [10] = target: T1, Estrogen receptor beta; assay: Binding affinity to human ERbeta LBD after 2 hrs in absence of light by competitive fluorometric binding assay

T1 sequence (Q92731 whole entry): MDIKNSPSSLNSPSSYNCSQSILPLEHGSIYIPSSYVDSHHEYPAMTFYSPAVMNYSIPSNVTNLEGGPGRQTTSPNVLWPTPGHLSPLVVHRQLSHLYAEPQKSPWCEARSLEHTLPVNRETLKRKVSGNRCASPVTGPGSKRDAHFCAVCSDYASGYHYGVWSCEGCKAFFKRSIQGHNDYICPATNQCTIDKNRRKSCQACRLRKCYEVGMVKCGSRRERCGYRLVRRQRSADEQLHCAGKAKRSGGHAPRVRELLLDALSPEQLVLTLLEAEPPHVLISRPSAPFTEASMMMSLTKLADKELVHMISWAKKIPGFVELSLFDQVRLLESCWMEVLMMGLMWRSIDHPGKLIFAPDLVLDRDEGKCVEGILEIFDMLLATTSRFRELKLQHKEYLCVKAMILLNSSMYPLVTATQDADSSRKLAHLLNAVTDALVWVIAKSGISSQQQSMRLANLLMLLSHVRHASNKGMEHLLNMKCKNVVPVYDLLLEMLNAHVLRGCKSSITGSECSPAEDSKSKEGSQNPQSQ

Compound | Efficacy (Estrogen receptor beta [1]) [%] | pIC50 [2] | Efficacy (Estrogen receptor beta [3]) [%] | pIC50 (MCF7) | Efficacy [4] [%] | inhibition (Mus musculus) [%] | pEC50 (Estrogen receptor [5]) | Efficacy [6] [%] | pIC50 (Estrogen receptor [7]) | pEC50 (Estrogen receptor beta [8]) | pIC50 (Estrogen receptor beta [9]) | pKi (Estrogen receptor beta [10])
CCc1ccccc1OS(=O)(=O)C1CC2OC1C(c1ccc(/C=C/c3cc(OC)cc(OC)c3)cc1)=C2c1ccc(O)cc1 (configuration not stated) | 72 | 6.10 | 20 | 4.30 | 18 | 65.4 | 6.84 | 37 | 8.52 | 8.05 |  | 
O=S(=O)(Oc1ccc(/C=C/c2ccccc2)cc1)C1CC2OC1C(c1ccc(O)cc1)=C2c1ccc(O)cc1 (configuration not stated) | 74 | 5.65 | 25 | 5.08 | 6 | 72.4 |  | 54 | 6.83 | 7.51 |  | 
O=S(=O)(Oc1cccc(Cl)c1)C1CC2OC1C(c1ccc(/C=C/c3cc(O)cc(O)c3)cc1)=C2c1ccc(O)cc1 (configuration not stated) | 91 | 5.67 | 60 | 4.89 | 16 | 62.1 |  | 4 | 6.03 | 8.70 |  | 
O=S(=O)(Oc1cccc2ccccc12)C1CC2OC1C(c1ccc(/C=C/c3cc(O)cc(O)c3)cc1)=C2c1ccc(O)cc1 (configuration not stated) | 71 | 5.48 | 65 | 4.96 | -10 | 44.4 |  | -4 | 7.31 | 6.65 |  | 
O=S(=O)(Oc1ccc(Br)cc1)C1CC2OC1C(c1ccc(/C=C/c3cc(O)cc(O)c3)cc1)=C2c1ccc(O)cc1 (configuration not stated) | 43 | 4.78 | 10 | 4.77 | -9 | 22 |  | 15 | 7.21 |  | 5.60 | 
Cc1cccc(OS(=O)(=O)C2CC3OC2C(c2ccc(/C=C/c4cc(O)cc(O)c4)cc2)=C3c2ccc(O)cc2)c1 (configuration not stated) | 46 | 5.62 | -3 | 4.79 | 22 | 68.4 |  | 2 | 6.02 |  | 5.51 | 
O=S(=O)(Oc1ccccc1Cl)C1CC2OC1C(c1ccc(/C=C/c3cc(O)cc(O)c3)cc1)=C2c1ccc(O)cc1 (configuration not stated) | 45 | 5.30 | 25 | 4.39 | 79 | 60.9 | 6.56 | 49 | 6.78 | 7.20 | 5.37 | 
O=S(=O)(Oc1ccc(/C=C/c2cc(O)cc(O)c2)cc1)C1CC2OC1C(c1ccc(O)cc1)=C2c1ccc(O)cc1 (configuration not stated) | 99 | 6.03 | 51 | 4.98 | -9 | 81 |  | 7 | 7.72 | 6.71 |  | 
O=S(=O)(Oc1cccc(/C=C/c2cc(O)cc(O)c2)c1)C1CC2OC1C(c1ccc(O)cc1)=C2c1ccc(O)cc1 (configuration not stated) | 93 | 4.78 | 62 | 4.75 | 15 | 24.8 |  | 29 | 5.85 | 6.13 |  | 5.34
O=S(=O)(Oc1cccc(O)c1)C1CC2OC1C(c1ccc(/C=C/c3cc(O)cc(O)c3)cc1)=C2c1ccc(O)cc1 (configuration not stated) | 106 | < 4.00 | 17 | 4.64 | 5 | 12.3 |  | 17 | 5.22 |  |  | 
COc1cc(/C=C/c2ccc(OS(=O)(=O)[C@@H]3C[C@@H]4O[C@H]3C(c3ccc(O)cc3)=C4c3ccc(O)cc3)cc2)cc(OC)c1 |  | 6.52 |  | 5.64 |  |  |  | 11 | 8.52 |  |  | 
CC/C(=C(\c1ccc(O)cc1)c1ccc(OCCN(C)C)cc1)c1ccccc1 [AFIMOXIFENE] |  | < 4.00 |  | 5.02 |  | 21.5 |  |  |  |  |  | 
Cc1ccccc1OS(=O)(=O)C1CC2OC1C(c1ccc(/C=C/c3cc(O)cc(O)c3)cc1)=C2c1ccc(O)cc1 (configuration not stated) | 100 | 4.55 | 36 | 4.25 | 84 | 39.1 | 5.90 | 36 | 8.00 | 6.62 |  | 
COc1cccc(OS(=O)(=O)C2CC3OC2C(c2ccc(/C=C/c4cc(O)cc(O)c4)cc2)=C3c2ccc(O)cc2)c1 (configuration not stated) | 102 | 4.95 | 52 | 4.98 | 55 | 42.3 |  | 36 | 7.32 | 8.52 |  | 
O=S(=O)(Oc1ccccc1)C1CC2OC1C(c1ccc(/C=C/c3ccccc3)cc1)=C2c1ccc(O)cc1 (configuration not stated) | 83 | 5.01 | 48 | 4.60 | 13 | 40.4 |  | 34 | 5.99 | 5.56 |  | 
O=S(=O)(Oc1cccc(Br)c1)C1CC2OC1C(c1ccc(/C=C/c3cc(O)cc(O)c3)cc1)=C2c1ccc(O)cc1 (configuration not stated) | 65 | 5.60 | -2 | 4.70 | 3 | 60.9 |  | 21 | 5.62 |  |  | 7.30
O=S(=O)(Oc1ccc(-c2ccccc2)cc1)C1CC2OC1C(c1ccc(/C=C/c3cc(O)cc(O)c3)cc1)=C2c1ccc(O)cc1 (configuration not stated) | 97 | 4.73 | 82 | 5.11 | 41 | 43 | 5.31 | 68 |  | 7.37 |  | 
O=S(=O)(Oc1ccc(Cl)cc1)C1CC2OC1C(c1ccc(/C=C/c3cc(O)cc(O)c3)cc1)=C2c1ccc(O)cc1 (configuration not stated) | 33 | 5.19 | 7 | 4.75 | -5 | 62.1 |  | 11 | 7.21 |  | 5.99 | 
COc1cc(/C=C/c2cccc(OS(=O)(=O)C3CC4OC3C(c3ccc(O)cc3)=C4c3ccc(O)cc3)c2)cc(OC)c1 (configuration not stated) | 86 | 5.20 | 47 | 4.94 | 13 | 55.1 |  | 47 | 6.13 |  |  | 
O=S(=O)(Oc1ccccc1)C1CC2OC1C(c1ccc(/C=C/c3cc(O)cc(O)c3)cc1)=C2c1ccc(O)cc1 (configuration not stated) | 76 | 5.22 | 37 | 4.70 | 29 | 70.9 |  | 4 | 6.37 | 6.18 |  | 
O=S(=O)(Oc1ccc(F)cc1)C1CC2OC1C(c1ccc(/C=C/c3cc(O)cc(O)c3)cc1)=C2c1ccc(O)cc1 (configuration not stated) | 98 | 5.05 | 45 | 4.88 | 16 | 71.9 |  | 7 | 8.30 | 6.56 |  | 
COc1cc(/C=C/c2ccc(OS(=O)(=O)[C@H]3C[C@H]4O[C@@H]3C(c3ccc(O)cc3)=C4c3ccc(O)cc3)cc2)cc(OC)c1 |  | 6.32 |  | 4.75 |  |  |  | 72 | 7.57 |  |  | 
O=S(=O)(Oc1ccc(O)cc1)C1CC2OC1C(c1ccc(/C=C/c3cc(O)cc(O)c3)cc1)=C2c1ccc(O)cc1 (configuration not stated) | 88 |  | 51 | 4.85 | 12 | 41 |  | 8 | 7.27 | 6.45 |  | 
COc1cc(/C=C/c2ccc(C3=C(c4ccc(O)cc4)C4CC(S(=O)(=O)Oc5cccc(OC)c5)C3O4)cc2)cc(OC)c1 (configuration not stated) | 39 | 5.90 | 37 | 4.11 | -2 | 60.1 |  | 32 |  | 6.03 | 6.19 | 
O=S(=O)(Oc1cccc(C(F)(F)F)c1)C1CC2OC1C(c1ccc(/C=C/c3cc(O)cc(O)c3)cc1)=C2c1ccc(O)cc1 (configuration not stated) | 31 | 4.84 | 29 | 4.94 | -7 | 41.6 |  | -10 | 7.14 | 5.76 | 7.38 | 
